Patent US10857236B2, “Sustained release nanocomposite, a process for producing the same and use thereof” (SZEGEDI TUDOMÁNYEGYETEM, priority 2015, dated 2020)

Experiments:
[1] = stability study of KYNA in MQ with and without 150 mM NaCl and in buffer; conditions: for demonstrated stability until: PBS buffer at pH=7.4 (physiological solution)
Procedure: New types of nanocomposites have been prepared within physiological conditions, in the nano-size range for the purpose of crossing the pharmaceutically active ingredients through the blood-brain barrier. […] The amount of the material constituting the composites, than the conditions of the preparation were determined. Stability studies were performed for the active ingredients by ensuring various conditions (pH=3 to 8 in physiological solution and without said physiological solution, in both phosphate and HEPES buffers). […]
The release tests were made in case of KYNA in PBS buffer at pH=7.4. (physiological solution). […]

[2] = KYNA permeability in in vitro blood-brain barrier model; assay type: in vitro ADME, rat; conditions: Wistar, rat, 20 μM KYNA final concentration, corrected for empty filters, read-out: permeability coefficient Pe
Procedure: The permeability of KYNA through the blood-brain barrier from BSA/KYNA/PAH nanocapsules was determined by means of an in vitro blood-brain barrier model. The description of the model is the following: microvessel rat brain endothelial cells were isolated from 2 to 3 weeks old Wistar animals by means of a method described earlier (Wilhelm és munkatársai, 2011). After the removal of the meninges, the brain tissue was dissectioned to small pieces, then it was digested by type 2 collagenase and collagenase/dispase, finally it was centrifuged on percoll gradient. The microvessel fragments were plated on collagenIV/fibronectin-coated Petri dishes and were cultured in DMEM/F12 in the presence of plasma serum and growth factors. […]
From these samples the concentration of KYNA was determined using an Agilent 1100 HPLC-MS system (Agilent Technologies, Santa Clara, Calif., USA).
To calculate the permeability coefficient the following formulae were applied: PappdQ/(dT×A×C0), wherein dQ stands for the crossed amount of the material, dT stands for the incubation period of time (1 hour), A stands for the surface of the filter and C0 stands for the starting concentration (20 μM). The values thus calculated were compared to the values measured on empty (not containing cells) filters according to the following method: […]).

[3] = system: somatosensory evoked potentials (SEPs); experiment: in vivo amplitudes of somatosensory evoked potentials after peripheral administration; parameters: species or system male Wistar rats; conditions: intraperitoneal administration, 300 mg/kg, n=5
Source text: The preparation of the corresponding composite (FIG. 1) was accomplished with the following parameters. […] At a neutral pH the compact structure of the protein offers an opportunity to enclose large amount of kynurenic acid. In the “heart shaped” conformation of the BSA, the hydrophobic parts directed inside the conformation can form hydrogen-bridge, hydrophobic, furthermore ππ interactions with the KYNA molecule. […] After the in vitro drug release experiments the KYNA permeability was investigated with the help of an in vitro blood-brain barrier model. […] The animal experiments were performed on male Wistar rats (300 g, n=30). During the tests the effect of the peripherally administered KYNA was investigated in the central nervous system.

[4] = in vitro drug release in Franz cell (vertical diffusion cell), kinetic models; assay type: physicochemical
Procedure: FIG. 7: A schematic figure of the Franz-cell (vertical diffusion cell) with which the in vitro drug release experiments were carried out. […] The active ingredient release tests were made at two temperatures: at 25 and 37.5° C. (FIGS. 7 and 8).

[5] = DOPA containing composites, 25° C.
[6] = DOPA containing composites, 37.5° C.
[7] = KYNA containing composites, 25° C.
[8] = KYNA containing composites, 37.5° C.

O=C(O)c1cc(=O)c2ccccc2[nH]1 [KYNA, kynurenic acid]
0.0062 s⁻¹: Release rate, not depending on the concentration, zero-order kd [4, 6]
0.0079 s⁻¹: Release rate, depending on the concentration, first-order kd [4, 5]
already starts in the first hours: degrading of KYNA as a result of the buffers ([1]; in buffer)
1.2 * 10^−2 s^−1/2: Release rate, diffusion controlled, Higuchi kd [4, 8]
4.9 * 10^−3 s^−1/2: Release rate, diffusion controlled, Higuchi kd [4, 7]
96 h: demonstrated stability until ([1]; release tests of IBU)
Higuchi model: kinetic model that characterizes / best fits the release ([4]; in vitro release profiles)
unstable: stability of KYNA ([1]; HEPES (150 mM NaCl), 24 h) | stability of KYNA ([1]; HEPES (150 mM NaCl), 48 h) | stability of KYNA ([1]; HEPES (150 mM NaCl), 72 h) | stability of KYNA ([1]; HEPES (150 mM NaCl), 96 h) | stability of KYNA ([1]; pH 3 (MQ + 150 mM NaCl), 96 h) | stability of KYNA ([1]; pH 3 (MQ), 96 h) | stability of KYNA ([1]; pH 4 (MQ + 150 mM NaCl), 96 h) | stability of KYNA ([1]; pH 4 (MQ), 72 h) | stability of KYNA ([1]; pH 4 (MQ), 96 h) | stability of KYNA ([1]; pH 5 (MQ + 150 mM NaCl), 48 h) | stability of KYNA ([1]; pH 5 (MQ + 150 mM NaCl), 72 h) | stability of KYNA ([1]; pH 5 (MQ + 150 mM NaCl), 96 h) | stability of KYNA ([1]; pH 5 (MQ), 96 h) | stability of KYNA ([1]; pH 6 (MQ + 150 mM NaCl), 96 h) | stability of KYNA ([1]; pH 6 (MQ), 72 h) | stability of KYNA ([1]; pH 6 (MQ), 96 h) | stability of KYNA ([1]; pH 7 (MQ + 150 mM NaCl), 96 h) | stability of KYNA ([1]; pH 7 (MQ), 72 h) | stability of KYNA ([1]; pH 7 (MQ), 96 h) | stability of KYNA ([1]; pH 8 (MQ + 150 mM NaCl), 96 h) | stability of KYNA ([1]; pH 8 (MQ), 96 h)
0.63 s⁻¹: Release rate, not depending on the concentration, zero-order kd [4, 5]
0.0004 s⁻¹: Release rate, not depending on the concentration, zero-order kd [4, 7]
no significant change: change of amplitude of somatosensory evoked potentials [3]
72 h: demonstrated stability until ([1]; release tests of KYNA)
3.71 ×10⁻⁶ cm/s: Papp at 1 h, 20 µM [2]
7.0 * 10^−0 s^−1/2: Release rate, diffusion controlled, Higuchi kd [4, 6]
0.001 s⁻¹: Release rate, not depending on the concentration, zero-order kd [4, 8]
0.0015 s⁻¹: Release rate, depending on the concentration, first-order kd [4, 7]
stable: stability of KYNA ([1]; HEPES (150 mM NaCl), 0 h) | stability of KYNA ([1]; pH 3 (MQ + 150 mM NaCl), 0 h) | stability of KYNA ([1]; pH 3 (MQ + 150 mM NaCl), 24 h) | stability of KYNA ([1]; pH 3 (MQ + 150 mM NaCl), 48 h) | stability of KYNA ([1]; pH 3 (MQ + 150 mM NaCl), 72 h) | stability of KYNA ([1]; pH 3 (MQ), 0 h) | stability of KYNA ([1]; pH 3 (MQ), 24 h) | stability of KYNA ([1]; pH 3 (MQ), 48 h) | stability of KYNA ([1]; pH 3 (MQ), 72 h) | stability of KYNA ([1]; pH 4 (MQ + 150 mM NaCl), 0 h) | stability of KYNA ([1]; pH 4 (MQ + 150 mM NaCl), 24 h) | stability of KYNA ([1]; pH 4 (MQ + 150 mM NaCl), 48 h) | stability of KYNA ([1]; pH 4 (MQ + 150 mM NaCl), 72 h) | stability of KYNA ([1]; pH 4 (MQ), 0 h) | stability of KYNA ([1]; pH 4 (MQ), 24 h) | stability of KYNA ([1]; pH 4 (MQ), 48 h) | stability of KYNA ([1]; pH 5 (MQ + 150 mM NaCl), 0 h) | stability of KYNA ([1]; pH 5 (MQ + 150 mM NaCl), 24 h) | stability of KYNA ([1]; pH 5 (MQ), 0 h) | stability of KYNA ([1]; pH 5 (MQ), 24 h) | stability of KYNA ([1]; pH 5 (MQ), 48 h) | stability of KYNA ([1]; pH 5 (MQ), 72 h) | stability of KYNA ([1]; pH 6 (MQ + 150 mM NaCl), 0 h) | stability of KYNA ([1]; pH 6 (MQ + 150 mM NaCl), 24 h) | stability of KYNA ([1]; pH 6 (MQ + 150 mM NaCl), 48 h) | stability of KYNA ([1]; pH 6 (MQ + 150 mM NaCl), 72 h) | stability of KYNA ([1]; pH 6 (MQ), 0 h) | stability of KYNA ([1]; pH 6 (MQ), 24 h) | stability of KYNA ([1]; pH 6 (MQ), 48 h) | stability of KYNA ([1]; pH 7 (MQ + 150 mM NaCl), 0 h) | stability of KYNA ([1]; pH 7 (MQ + 150 mM NaCl), 24 h) | stability of KYNA ([1]; pH 7 (MQ + 150 mM NaCl), 48 h) | stability of KYNA ([1]; pH 7 (MQ + 150 mM NaCl), 72 h) | stability of KYNA ([1]; pH 7 (MQ), 0 h) | stability of KYNA ([1]; pH 7 (MQ), 24 h) | stability of KYNA ([1]; pH 7 (MQ), 48 h) | stability of KYNA ([1]; pH 8 (MQ + 150 mM NaCl), 0 h) | stability of KYNA ([1]; pH 8 (MQ + 150 mM NaCl), 24 h) | stability of KYNA ([1]; pH 8 (MQ + 150 mM NaCl), 48 h) | stability of KYNA ([1]; pH 8 (MQ + 150 mM NaCl), 72 h) | stability of KYNA ([1]; pH 8 (MQ), 0 h) | stability of KYNA ([1]; pH 8 (MQ), 24 h) | stability of KYNA ([1]; pH 8 (MQ), 48 h) | stability of KYNA ([1]; pH 8 (MQ), 72 h)
6.9 * 10^−0 s^−1/2: Release rate, diffusion controlled, Higuchi kd [4, 5]
0.0098 s⁻¹: Release rate, depending on the concentration, first-order kd [4, 6]
